Measured values reported in patent publication US5338747A, “Benzoisothiazolinone-1-dioxide derivatives as elastase inhibitors” (Chesebrough-Pond's USA Co., Division of Conopco, Inc., priority 1990, dated 1994).
Values belong to the compound of their own block, whether it stands above or below them.

How the values were obtained:
[1] = target: T1, Human leucocytic elastase (Homo sapiens, UniProt P08246); assay: Inhibition of human leucocytic elastase (succinyltrialanine p-nitroanilide substrate); assay type: biochemical; conditions: elastase 1 μg/ml, pre-incubated 15 min; 1% acetone; 410 nm
T1 sequence (P08246 30-247 limits assumed): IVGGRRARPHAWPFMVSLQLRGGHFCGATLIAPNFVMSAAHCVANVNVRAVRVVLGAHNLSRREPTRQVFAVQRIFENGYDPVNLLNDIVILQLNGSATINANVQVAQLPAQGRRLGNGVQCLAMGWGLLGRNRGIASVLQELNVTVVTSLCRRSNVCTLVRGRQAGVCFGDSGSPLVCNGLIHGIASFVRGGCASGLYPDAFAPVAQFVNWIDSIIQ
Protocol: (§1) The inhibition test was carried out by using succinyltrialanine p-nitroanilide as a synthetic substrate. Human leucocytic elastase, used at a concentration of 1 μg/ml, was first pre-incubated for 15 min with the compounds of the invention, used at a concentration of 0.5, 5, 10, 25 and 50 μg/ml. These compounds were added in the form of a solution in acetone, the final acetone concentration of the reaction mixture being 1%.
The degree of hydrolysis of the substrate was determined by measuring the amount of p-nitroaniline released, using a Philips PO 8700 spectrophotometer at 410 nm. The 50% inhibitory concentration (IC50) in mole/liter was then determined by a graphical method, using the inhibition values obtained with the different concentrations of the substrate and the inhibitor. […] It can thus be seen that the inhibitory action of these compounds increases with the number of carbon atoms in the R^2 group on going from C9 to C17.

[2] = target: T1, Human leucocytic elastase; assay: Protective action on the elastin in rabbit skin sections treated with human leucocytic elastase; conditions: 1.5 h at 37° C.
Protocol: The segments of rabbit skin were incubated for 1.5 h at 37° C. In the control experiment, they were incubated only with the buffer (100-mM tris-HCl, 0.1% of Brij 35, pH 8) under the same conditions. Thin sections of the skin specimens were then fixed for 2 min in 95% ethanol and stained for 3 h by a modified Verhoeff method, described by Godeau et al. [cf. Pathol. Biol., 32 (1984) pp. 215-6]. After a suitable contrast treatment, the surface density of the elastic fibres was determined by automatic image analysis, carried out directly on the microscope slides.

[3] = target: T1, Human leucocytic elastase; assay: Protective action on insoluble elastin against human leucocytic elastase (second and third series, elastin pre-incubated with compound); assay type: biochemical; conditions: 50-100 μg/ml, elastin first incubated with compound 30 min or 10 min
Protocol: Tritiated insoluble elastin extracted from the nuchal ligament was then added in a concentration of 75 μg/ml, corresponding to a radioactivity level of 2.2×10^6 counts per minute (cpm) per ml. 2) Protective action […] 3) Third series […] The mixture was then centrifuged, the supernatant was discarded, and the residue was suspended in the buffer that contained human leucocytic elastase. The degree of the hydrolysis of elastin was calculated in all three cases after incubation with elastase for 7 h at 37° C. by determining the radioactivity in the solubilized peptides derived from the elastin.

[4] = target: T1, Human leucocytic elastase; assay: Direct inhibition of elastin-cleaving activity of human leucocytic elastase (first series, elastase pre-incubated with compound); assay type: biochemical; conditions: pH 8.4, 7 h at 37° C.
Protocol: 1) Inhibitory action […] Tritiated insoluble elastin extracted from the nuchal ligament was then added in a concentration of 75 μg/ml, corresponding to a radioactivity level of 2.2×10^6 counts per minute (cpm) per ml. The degree of the hydrolysis of elastin was calculated in all three cases after incubation with elastase for 7 h at 37° C. by determining the radioactivity in the solubilized peptides derived from the elastin.

serine proteases = assay: Comparison of inhibitory power over all serine proteases used (E/IC50); assay type: biochemical; conditions: all enzymes of Table 2
Protocol: (§2) The inhibition exerted by the following two compounds on serine-containing proteases other than human Teucocytic elastase was determined in this Example:
(§3) More specifically, the activity of a) pig pancreatic elastase, b) trypsin, c) thrombin and d) plasmin was determined in the presence of these inhibitors and of the synthetic substrates: a) succinyltrialanine p-nitroanilide, b) N-benzoyl-DL-arginine p-nitroanilide, c) N-p-tosyl-gly-pro-arg p-nitroanilide and d) N-p-tosyl-gly-pro-lys p-nitroanilide, respectively.
(§4) Each enzyme was first incubated for 15 min with 0-50 μg/ml of compound B or P mentioned above, which had been dissolved in acetone as in the test with human leucocytic elastase, the final concentration of this solvent in the reaction mixture being 1%.
(§5) The appropriate substrate was then added to each enzyme, and its hydrolysis was monitored with a Philips 8700 spectrophotometer at 410 nm by measuring the amount of p-nitroaniline appearing in the medium.
(§6) The results were used to plot the inhibition of the enzymatic activity against the amount of inhibitor present in the medium. […]
(§7) Inhibition of human leucocytic elastase was also determined, as in Example 12.
(§8) To be able to compare the inhibitory power of the compounds tested on the various enzymes used, the E/IC50 value was calculated, where E is the concentration of the enzyme in the reaction mixture (also expressed in mole/l ). […]

Pig pancreatic elastase = Pig pancreatic elastase (Sus scrofa, UniProt P00772); assay: Serine protease inhibition, E/IC50: pig pancreatic elastase; assay type: biochemical; conditions: pig pancreatic elastase vs thrombin
Protocol: as §2, §3, §4, §5, §6, §8

[5] = target: T1, Human leucocytic elastase; assay: Serine protease inhibition, E/IC50: human leucocytic elastase; assay type: biochemical; conditions: human leucocytic elastase vs thrombin
Protocol: as §1
The degree of hydrolysis of the substrate was determined by measuring the amount of p-nitroaniline released, using a Philips PO 8700 spectrophotometer at 410 nm. […]
The inhibition exerted by the following two compounds on serine-containing proteases other than human Teucocytic elastase was determined in this Example: […]
The appropriate substrate was then added to each enzyme, and its hydrolysis was monitored with a Philips 8700 spectrophotometer at 410 nm by measuring the amount of p-nitroaniline appearing in the medium. […]
as §7, §8

Trypsin = target: T2, Trypsin (Bos taurus, UniProt P00760); assay: Serine protease inhibition, E/IC50: trypsin; assay type: biochemical
T2 sequence (P00760 24-246): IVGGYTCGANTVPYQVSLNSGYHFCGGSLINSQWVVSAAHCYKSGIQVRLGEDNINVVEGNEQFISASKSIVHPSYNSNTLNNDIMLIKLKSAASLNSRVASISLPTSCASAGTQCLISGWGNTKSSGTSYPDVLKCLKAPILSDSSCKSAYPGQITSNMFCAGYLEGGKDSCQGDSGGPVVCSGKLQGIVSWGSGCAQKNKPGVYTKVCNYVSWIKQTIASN
Protocol: as §2, §3, §4, §5
The results were used to plot the inhibition of the enzymatic activity against the amount of inhibitor present in the medium. These curves were then used to find the median inhibitory concentration (IC50) in mole/l, which inhibits 50% of the enzymatic activity.
To be able to compare the inhibitory power of the compounds tested on the various enzymes used, the E/IC50 value was calculated, where E is the concentration of the enzyme in the reaction mixture (also expressed in mole/l ). The higher the value of this quotient, the stronger the inhibitory activity, and therefore the lower the number of moles of the inhibitor that are needed to obtain a 50% inhibition for the same number of moles of the enzyme.

Plasmin = assay: Serine protease inhibition, E/IC50: plasmin; assay type: biochemical
Protocol: as §2, §3, §4, §5, §6, §8

Pig pancreatic elastase, sequence (P00772 27-266): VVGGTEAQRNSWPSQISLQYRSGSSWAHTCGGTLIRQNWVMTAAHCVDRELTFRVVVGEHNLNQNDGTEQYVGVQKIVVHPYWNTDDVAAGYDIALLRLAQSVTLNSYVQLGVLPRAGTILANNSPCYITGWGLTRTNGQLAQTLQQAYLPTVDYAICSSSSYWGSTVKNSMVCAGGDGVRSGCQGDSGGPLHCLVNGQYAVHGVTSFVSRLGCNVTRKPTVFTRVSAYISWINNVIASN

IC50 [1]: 75 µM
SMILES: C=CCCCCCCCCC(=O)N1C(=O)c2ccccc2S1(=O)=O [Example 6, 2-undecenoylbenzisothiazolinone-1-dioxide]

IC50 [1]: 90 µM
SMILES: O=C(C=Cc1ccccc1)N1C(=O)c2ccccc2S1(=O)=O [Example 8]

IC50 [1]: 5 µM
SMILES: COc1ccc(C=CC(=O)N2C(=O)c3ccccc3S2(=O)=O)cc1OC [Example 7, 2-[(3,4)-dimethoxycinnamoyl]-benzisothiazolinone-1-dioxide]

IC50 [1]: 4.7 µM
SMILES: CCCCCCCCCCCCCCCCCC(=O)N1C(=O)c2ccccc2S1(=O)=O [Example 4, 2-stearoylbenzisothiazolinone-1-dioxide]

Further lines, the compound ahead of its results:

SMILES: CCCCCCCCCCCC(=O)N1C(=O)c2ccccc2S1(=O)=O [Example 1, 2-lauroylbenzisothiazolinone-1-dioxide]
volume fraction V occupied by the cutaneous elastic fibres ([2]; elastase 15 μg/ml + compound 350 μg/ml, V without elastase 6.25±0.5%, with elastase alone 4.1±0.8%): 6.00±1%
inhibition at 350 µg/mL ([2]; pH 8, elastase 15 μg/ml + compound 350 μg/ml, read-out: protection from the action of elastase): 96%
maximum inhibition (protection of insoluble elastic fibres) [3]: 50%
IC50 [1]: 11 µM
inhibition at 45 µg/mL ([4]; 45 μg/ml, elastase 1 μg/ml, tritiated insoluble elastin 75 μg/ml): 80%
IC50 ([4]; elastase 1 μg/ml incubated 10 min with compound): 75 µM

SMILES: CCCCCCCCCCCCCCCC(=O)N1C(=O)c2ccccc2S1(=O)=O [Example 3, 2-palmitoyl-benzisothiazolinone-1-dioxide]
inhibitory power relative to butyrylbenzisothiazolinone-1-dioxide (in words) (serine proteases): better inhibitor than butyrylbenzisothiazolinone-1-dioxide, irrespective of the enzyme used
inhibition relative to thrombin (Pig pancreatic elastase): 20-40 times
IC50 [1]: 2.1 µM
inhibition relative to thrombin [5]: 20-40 times
inhibition relative to thrombin (Trypsin; trypsin vs thrombin): 20-40 times

SMILES: O=C(CCc1ccccc1)N1C(=O)c2ccccc2S1(=O)=O [Example 9]
IC50 [1]: 48 µM

SMILES: CCCCCCCCCC(=O)N1C(=O)c2ccccc2S1(=O)=O [Example 5]
IC50 [1]: 86 µM

SMILES: CCCCCCCCCCCCCC(=O)N1C(=O)c2ccccc2S1(=O)=O [Example 2, 2-myristoylbenzisothiazolinone-1-dioxide]
IC50 [1]: 9.2 µM

SMILES: COc1ccc(CCCC(=O)N2C(=O)c3ccccc3S2(=O)=O)cc1 [Example 10]
IC50 [1]: 36 µM

SMILES: CCCC(=O)N1C(=O)c2ccccc2S1(=O)=O [2-butyryl-benzisothiazolinone-1-dioxide]
inhibition relative to thrombin (in words) (Pig pancreatic elastase): more strongly than it inhibits thrombin
effect on plasmin (in words) (Plasmin; 0-50 μg/ml): no effect on plasmin
E/IC50 (Plasmin; E = enzyme concentration (mole/l), N-p-tosyl-gly-pro-lys p-nitroanilide substrate): inactive
inhibition relative to thrombin (in words) [5]: more strongly than it inhibits thrombin
effect on trypsin (in words) (Trypsin; 0-50 μg/ml): activates trypsin
E/IC50 (Trypsin; E = enzyme concentration (mole/l), N-benzoyl-DL-arginine p-nitroanilide substrate): activator
